Assay [1] deals with T1, purified wild type MGL (wt-MGLL 6H-11-313) (Homo sapiens, UniProt Q99685).
T1 construct: purified wild type MGL (wt-MGLL 6H-11-313)
T1 sequence (Q99685 1-303): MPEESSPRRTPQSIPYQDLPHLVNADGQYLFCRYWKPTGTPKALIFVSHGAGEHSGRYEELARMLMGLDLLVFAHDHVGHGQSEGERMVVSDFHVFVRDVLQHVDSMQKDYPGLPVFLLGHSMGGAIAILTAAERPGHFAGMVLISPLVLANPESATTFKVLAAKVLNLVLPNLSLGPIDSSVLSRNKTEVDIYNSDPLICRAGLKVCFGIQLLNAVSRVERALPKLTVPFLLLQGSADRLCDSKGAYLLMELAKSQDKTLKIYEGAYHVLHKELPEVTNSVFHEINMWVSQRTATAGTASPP
In words: MGL enzyme activity assay (4MU-B cleavage), wild type MGL. It is filed as biochemical. Particulars: wild type MGL 5 nM, 4MU-B 10 μM, 37° C.; read-out: MGL wild type inh IC50. The method, boiled down:
(§1)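 Enzyme in 20 mM PIPES pH 7.0, 150 mM NaCl, 0.001% Tween 20 with 4MU-B at 10 μM final and MGL at 5 nM final; compounds 17 to 0.0003 μM final, enzyme added last. Fluorescence (ex 335/em 440 nm) followed at 37° C for 5 min; IC50 from fit of fractional activity versus inhibitor concentration.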

Assay [2] deals with T2, mutant MGL (Homo sapiens, UniProt Q99685, L169S/L176S).
T2 construct: purified mutant MGL (mut-MGLL 11-313 L179S L186S)
T2 sequence (Q99685 1-303 L169S/L176S): T1 sequence (Q99685 1-303) with L169S, L176S
Put plainly: MGL ThermoFluor assay - mutant. It counts as binding. Particulars: qNMR-corrected compound concentration; read-out: MGL mutant ThermoFluor qKd. The protocol: The ThermoFluor (TF) assay is a 384-well plate-based binding assay that measures thermal stability of proteins^1,2. The experiments were carried out using instruments available from Johnson & Johnson Pharmaceutical Research & Development, LLC. TF dye used in all experiments was 1,8-ANS (Invitrogen: A-47). Final TF assay conditions used for MGL studies were 0.07 mg/ml of mutant MGL, 100 μM ANS, 200 mM NaCl, 0.001% Tween-20 in 50 mM PIPES (pH=7.0).
Screening compound plates contained 100% DMSO compound solutions at a single concentration. For follow-up concentration-response studies, compounds were arranged in a pre-dispensed plate (Greiner Bio-one: 781280), wherein compounds were serially diluted in 100% DMSO across 11 columns within a series. Columns 12 and 24 were used as DMSO reference and contained no compound. For both single and multiple compound concentration-response experiments, the compound aliquots (46 nL) were robotically predispensed directly into 384-well black assay plates (Abgene: TF-0384/k) using the Hummingbird liquid handler. Following compound dispension, protein and dye solutions were added to achieve the final assay volume of 3 μL. The assay solutions were overlayed with 1 μL of silicone oil (Fluka, type DC 200: 85411) to prevent evaporation.
Bar-coded assay plates were robotically loaded onto a thermostatically controlled PCR-type thermal block and then heated from 40 to 90° C. degrees at a ramp-rate of 1° C./min for all experiments. Fluorescence was measured by continuous illumination with UV light (Hamamatsu LC6), supplied via fiber optics and filtered through a band-pass filter (380-400 nm; >6 OD cutoff). Fluorescence emission of the entire 384-well plate was detected by measuring light intensity using a CCD camera (Sensys, Roper Scientific) filtered to detect 500±25 nm, resulting in simultaneous and independent readings of all 384 wells. A single image with 20-sec exposure time was collected at each temperature, and the sum of the pixel intensity in a given area of the assay plate was recorded vs temperature and fit to standard equations to yield the Tm^1. • 1. Pantoliano, M. W., Petrella, E. C., Kwasnoski, J. D., Lobanov, V. S., Myslik, J., Graf, E., Carver, T., Asel, E., Springer, B. A., Lane, P., and Salemme, F. R. (2001) J Biomol Screen 6, 429-40. • 2. Matulis, D., Kranz, J. K., Salemme, F. R., and Todd, M. J. (2005) Biochemistry 44, 5258-66.
The Kd values for certain compounds of Formula (I) were determined from a fit of the equation to the concentration-response plot of the fractional activity as a function of […]. For some experiments, quantitative NMR spectroscopy (qNMR) was used to measure concentration of the initial 100% DMSO compound solutions and, using the same fitting method, qKd values were determined.
On the technique in general: DSF heats the sample and reads unfolding from a dye or from intrinsic fluorescence.

The subject of assay [3] is MGL (rat brain homogenate). In words: 2-AG accumulation assay in rat brain homogenate. It counts as biochemical. As to conditions: compound 1 μM, percent of vehicle 2-AG accumulation. The method in brief: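 Rat brain homogenate was incubated with compound for 15 min at 37° C., after which CaCl2 was added to a final concentration of 10 mM and incubation continued for 15 min at 37° C. in 5 mL total. Reactions were stopped with 6 mL of 2:1 chloroform/methanol, and 2-AG accumulated in the organic phase was quantified by HPLC/MS.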

The target of assay [4] is T3, purified mutant MGL (mut-MGLL 11-313 L179S L186S) (Homo sapiens, UniProt Q99685, L169S/L176S).
T3 construct: purified mutant MGL (mut-MGLL 11-313 L179S L186S)
T3 sequence (Q99685 1-303 L169S/L176S): T1 sequence (Q99685 1-303) with L169S, L176S
In words: MGL enzyme activity assay (4MU-B cleavage), mutant MGL. Particulars: mutant MGL 5 nM, 4MU-B 10 μM, 37° C.; read-out: MGL mutant inh IC50. It is filed as biochemical. The method, boiled down: as §1

Substitutions are numbered along the chain they refer to.

Usually IC50 stands for the concentration that gives 50% inhibition. With `O=C(c1ccc2c(ccn2CC(F)F)c1)N1CC(N[C@H]2CCN(C(=O)c3nccs3)C2)C1` [Cpd 213, (3S)-N-(1-{[1-(2,2-Difluoroethyl)-1H-indol-5-yl]carbonyl}azetidin-3-yl)-1-(1,3-thiazol-2-ylcarbonyl)pyrrolidin-3-amine], the half-inhibitory concentration (IC50) in assay [1] is 1390 nM. Further, in assay [2], the Kd stood at 963 nM.

Turning to `Cn1cc(Cc2ccc(F)cc2)c2ccc(C(=O)N3CC(N[C@H]4CCN(C(=O)c5nccs5)C4)C3)cc21` [Cpd 221, (3S)-N-(1-{[3-(4-Fluorobenzyl)-1-methyl-1H-indol-6-yl]carbonyl}azetidin-3-yl)-1-(1,3-thiazol-2-ylcarbonyl)pyrrolidin-3-amine], the concentration for half-maximal inhibition (IC50) in assay [1] was under 5 nM. Further, in assay [3], the “Rat Brain 2AG % VehCntrl (%) @1 μM” value was 878%. For the same compound, the Kd in assay [2] was 88.5 nM.

For the compound `O=C(c1nccs1)N1CC[C@H](NC2CN(C(=O)c3cn(-c4ccc(F)cc4)c4ccccc34)C2)C1` [Cpd 219, (3S)-N-(1-{[1-(4-Fluorophenyl)-1H-indol-3-yl]carbonyl}azetidin-3-yl)-1-(1,3-thiazol-2-ylcarbonyl)pyrrolidin-3-amine], in assay [1], the half-maximal inhibitory concentration (IC50) worked out at 4980 nM. Moreover, the Kd in assay [2] turned out to be 4980 nM.

For the compound `Cn1cc(-c2cccc(F)c2)c2ccc(C(=O)N3CC(N[C@H]4CCN(C(=O)c5nccs5)C4)C3)cc21` [Cpd 205, (3S)-N-(1-{[3-(3-Fluorophenyl)-1-methyl-1H-indol-6-yl]carbonyl}azetidin-3-yl)-1-(1,3-thiazol-2-ylcarbonyl)pyrrolidin-3-amine], in assay [1], the IC50 is under 5 nM. Further, the “Rat Brain 2AG % VehCntrl (%) @1 μM” value in assay [3] came to 446%. The Kd in assay [2] came out at 21.4 nM.

As to `Cn1cc(-c2cccc(F)c2)c2ccc(C(=O)N3CC(N[C@H]4CCN(C(=O)c5cscn5)C4)C3)cc21` [Cpd 206, (3S)-N-(1-{[3-(3-Fluorophenyl)-1-methyl-1H-indol-6-yl]carbonyl}azetidin-3-yl)-1-(1,3-thiazol-4-ylcarbonyl)pyrrolidin-3-amine], in assay [1], the half-maximal inhibitory concentration (IC50) came out at 81 nM. Further, in assay [3], the “Rat Brain 2AG % VehCntrl (%) @1 μM” value was 267%. For the same compound, in assay [2], the Kd amounted to 122 nM.

For the compound `O=C(c1cscn1)N1CC[C@H](NC2CN(C(=O)c3cccc4c3ccn4-c3ccc(F)cc3)C2)C1` [Cpd 215, (3S)-N-(1-{[1-(4-Fluorophenyl)-1H-indol-4-yl]carbonyl}azetidin-3-yl)-1-(1,3-thiazol-4-ylcarbonyl)pyrrolidin-3-amine], the 50% inhibitory concentration (IC50) in assay [1] is 668 nM. In assay [2], the Kd stood at 1440 nM.

Consider `O=C(c1nccs1)N1CC[C@H](NC2CN(C(=O)c3cn(-c4cccc(F)c4)c4ccccc34)C2)C1` [Cpd 218, (3S)-N-(1-{[1-(3-Fluorophenyl)-1H-indol-3-yl]carbonyl}azetidin-3-yl)-1-(1,3-thiazol-2-ylcarbonyl)pyrrolidin-3-amine], for which the IC50 in assay [1] amounted to 1890 nM. In assay [2], the Kd is 3450 nM.

`O=C(c1ccc2c(-c3cccc(F)c3)c[nH]c2c1)N1CC(N[C@H]2CCN(C(=O)c3cscn3)C2)C1` [Cpd 203, (3S)-N-(1-{[3-(3-Fluorophenyl)-1H-indol-6-yl]carbonyl}azetidin-3-yl)-1-(1,3-thiazol-4-ylcarbonyl)pyrrolidin-3-amine]: in assay [1], the half-inhibitory concentration (IC50) was found to be 50.4 nM. Further, in assay [3], the “Rat Brain 2AG % VehCntrl (%) @1 μM” value was found to be 238%. In addition, the Kd in assay [2] came to 264 nM.

Turning to `O=C(c1ccc2c(-c3cccc(F)c3)c[nH]c2c1)N1CC(N[C@H]2CCN(C(=O)c3ccccc3)C2)C1` [Cpd 204, (3S)-N-(1-{[3-(3-Fluorophenyl)-1H-indol-6-yl]carbonyl}azetidin-3-yl)-1-(phenylcarbonyl)pyrrolidin-3-amine], the IC50 in assay [1] amounted to 344 nM. The Kd in assay [2] is 186 nM.

In the case of `O=C(c1cscn1)N1CC[C@H](NC2CN(C(=O)c3cccc4c3CCN4c3ccc(F)cc3)C2)C1` [Cpd 217, (3S)-N-(1-{[1-(4-Fluorophenyl)-2,3-dihydro-1H-indol-4-yl]carbonyl}azetidin-3-yl)-1-(1,3-thiazol-4-ylcarbonyl)pyrrolidin-3-amine], the concentration for half-maximal inhibition (IC50) in assay [1] stood at 723 nM. Moreover, the Kd in assay [2] worked out at 1960 nM.

In the case of `CN(C(=O)Cn1ccc2cc(C(=O)N3CC(N[C@H]4CCN(C(=O)c5nccs5)C4)C3)ccc21)c1ccccc1` [Cpd 222, N-Methyl-N-phenyl-2-{5-[(3-{[(3S)-1-(1,3-thiazol-2-ylcarbonyl)pyrrolidin-3-yl]amino}azetidin-1-yl)carbonyl]-1H-indol-1-yl}acetamide], the half-inhibitory concentration (IC50) in assay [1] was 1680 nM. For the same compound, in assay [2], the Kd was determined as 3240 nM.

Regarding `Cc1cc2c(ccn2-c2ccc(F)cc2)cc1C(=O)N1CC(N[C@H]2CCN(C(=O)c3nccs3)C2)C1` [Cpd 224, (3S)-N-(1-{[1-(4-Fluorophenyl)-6-methyl-1H-indol-5-yl]carbonyl}azetidin-3-yl)-1-(1,3-thiazol-2-ylcarbonyl)pyrrolidin-3-amine], the IC50 in assay [1] worked out at 224 nM. In addition, the Kd in assay [2] turned out to be 218 nM.

For the compound `O=C(c1nccs1)N1CC[C@H](NC2CN(C(=O)c3ccc4c(ccn4-c4ccc(F)cc4)c3Cl)C2)C1` [Cpd 223, (3S)-N-(1-{[4-Chloro-1-(4-fluorophenyl)-1H-indol-5-yl]carbonyl}azetidin-3-yl)-1-(1,3-thiazol-2-ylcarbonyl)pyrrolidin-3-amine], the half-maximal inhibitory concentration (IC50) in assay [1] was 14 nM. In assay [2], the Kd came out at 143 nM.

For the compound `O=C(c1nccs1)N1CC[C@H](NC2CN(C(=O)c3cc4ccn(-c5ccc(F)cc5)c4cc3Cl)C2)C1` [Cpd 225, (3S)-N-(1-{[6-Chloro-1-(4-fluorophenyl)-1H-indol-5-yl]carbonyl}azetidin-3-yl)-1-(1,3-thiazol-2-ylcarbonyl)pyrrolidin-3-amine], the IC50 in assay [1] was found to be 39.2 nM. Also, the Kd in assay [2] was found to be 102 nM.

For the compound `O=C(c1ccc(-c2cccc(C(F)(F)F)c2)cc1)N1CC(N(O)[C@H]2CCN(C(=O)c3ccccc3)C2)C1` [Cpd 54, (3S)-N-Hydroxy-1-(phenylcarbonyl)-N-(1-{[3′-(trifluoromethyl)biphenyl-4-yl]carbonyl}azetidin-3-yl)pyrrolidin-3-amine], the half-maximal inhibitory concentration (IC50) in assay [4] is under 5 nM; in assay [1], 58.8 nM. The “Rat Brain 2AG % VehCntrl (%) @1 μM” value in assay [3] amounted to 242%.

With `Cc1c(C(=O)N2CC(N[C@H]3CCN(C(=O)c4ccccc4)C3)C2)sc2ccc(-c3cccc(C(F)(F)F)c3)cc12` [Cpd 41, (3S)-N-[1-({3-Methyl-5-[3-(trifluoromethyl)phenyl]-1-benzothiophen-2-yl}carbonyl)azetidin-3-yl]-1-(phenylcarbonyl)pyrrolidin-3-amine], the concentration for half-maximal inhibition (IC50) in assay [4] was 6.3 nM; in assay [1] it was under 5 nM. Also, the “Rat Brain 2AG % VehCntrl (%) @1 μM” value in assay [3] turned out to be 1102%.

The record behind these values is patent publication US8748417B2, “Amino-pyrrolidine-azetidine diamides as monoacylglycerol lipase inhibitors” (Janssen Pharmaceutica, NV, priority 2010, dated 2014).
